In experiment [1] the test system is Apteronotus leptorhynchus. The experiment can be described thus: Neuro-behavioral assay: locomotor activity and induction of anesthesia. The class given is in vivo. The following applies: for Treatment time until anal fin undulation and opercular movement ceased, including transfer to and from the beaker: 2.5% urethane or 0.02% MS-222 immersion. As for the experimental part: FIG. 30 Locomotor activity inferred from amplitude fluctuations of the EOD. After recording of the baseline EOD for 6 min, the fish was transferred to a 0.02% MS-222 solution in aquarium water for 5 min. After return of the fish to its home tank, the EOD recording continued for 15 min. To determine the locomotor activity index, positive and negative deviations from an arbitrarily set threshold value of the amplitude were determined every 1 sec, and the standard deviation of the absolute values of these amplitude deviations were calculated for 30-sec time windows. […] Recovery of the locomotor activity occurred within some 2 min after the fish was returned to its home tank (filled circles).
(§1) The experimental design is outlined in FIG. 2. To determine the baseline EOD frequency, the fish's EOD was recorded for 30 min. Then, the fish was transferred into a glass beaker containing either 2.5% urethane (Acros Organics, New Jersey, USA) or 0.02% MS-222 (Western Chemical, Washington, USA), each dissolved in water from the fish's isolation tank. As a control, the fish was moved into an identical glass beaker containing aquarium water only. The temperatures of the anesthetic solutions or the aquarium water in the beaker were similar (±1° C.) to the temperature of the water in the fish's isolation tank.
(§2) The fish was left in the anesthetic solution until both anal fin undulation and opercular movement ceased. It was then returned to its isolation tank where recording of the EOD continued for 180 min. For urethane anesthesia, treatment including transfer to and from the beaker took between 4-5 min. MS-222 anesthesia required longer exposure to the anesthetic so that the entire treatment lasted between 9-15 min. Control experiments were designed such that the handling of the fish and the time the fish spent outside its isolation tank were similar to the corresponding anesthesia experiments (urethane control: 5-8 min; MS-222 control: 7-10 min).
To examine the effect of eugenol on EOD frequency and chirping behavior, the following experiments were conducted using 8 fish (FIG. 11): First, the baseline EOD was recorded in the fish's home tank (50 cm×30 cm×30 cm) for 30 min. Then, for the 5-min treatment session, the shelter tube with the fish was transferred to a smaller (experimental) tank (30 cm×20 cm×20 cm) containing either eugenol dissolved in aquarium water at a certain concentration (30 μL/L, 45 μL/L, or 60 μL/L; ‘test condition’) or aquarium water only (‘control condition’). The temperature in the experimental tank was similar to the temperature in the home tank (median difference: ±0.2° C.). Finally, the shelter tube with the fish was returned to the home tank, where recording continued for 180 min. Throughout the 215 min of pre-treatment, treatment, and post-treatment, the recording of the EOD was interrupted only for a few seconds during which the fish was transferred between its home tank and the experimental tank. The order of the four treatment conditions was determined using a randomized complete block design. Each test or control experiment in a given fish was conducted on a different day.
Most of the time, fish in the shelter tube maintained an upright position, with their longitudinal axis parallel to the walls of the tube. Forward and backward swimming occurred frequently and appeared to be mediated primarily by high-frequency undulations of the anal fin. Sporadically, the fish made 180° turns around its vertical axis.
Neuro-Behavioral Assay extended to the monitoring of locomotor activity. The electric organ discharge (EOD) that is recorded as the assayed behavior contains not only information about the frequency and possible modulations of the EOD (‘chirps’) but also about the locomotor activity of the fish. […]

The test system of experiment [2] is Apteronotus leptorhynchus. The experiment is described as follows: Neuro-behavioral assay: chirps (EOD modulations). The class given is in vivo. The following applies: for Number of chirps during the 30 min immediately following anesthesia (mean) / Number of chirps during the 30 min immediately following anesthesia (median) / Number of chirps during the 30 min immediately following anesthesia (range among fish): 2.5% urethane or 0.02% MS-222, n=8 fish.
Description: Previous research has shown that transient modulations of the EOD may occur, both spontaneously and through stimulation with electric signal mimicking the EOD of a conspecific. These modulations are brief (several tens of milliseconds) and involve frequency increases. They are commonly referred to as ‘chirps.’
To identify chirp instances, the time-frequency data {(Tk, fk)}k=q^q+n^wind, q=1, . . . , M−nwind−1, was considered in a moving time window containing nwind+1 samples. The first and last nmed samples in each window are used to establish the instantaneous base frequency before chirping:
to the data set {(ξp,q, ϕp,q)}p=0^n^wind for each q=1, 2, . . . time window. This curve fitting was carried out over a fixed search range α∈[αmin, αmax] discretized evenly using nα+1 number points. For each q=1, 2, . . . time window, the coefficient of determination Rq,i^2 was computed for each point αi=αmin+i (αmax−αmin)/nα, i=0, . . . , nα of the discretized search range. Then, the fitted curve for each q=1, 2, . . . time window as Φ (ξ; ? ), with
Subsequently, using Algorithm 1, contiguous segments of successive windows are identified within qε and for each segment the time window q associated with the maximum ? value is reported together with the corresponding parameter ? and maximum frequency rise Δfq.
Nonlinear regression is performed on data points within these time windows using the three-parameter model Ψ(ξ; α, Δf, τ)=Δf Φ(ξ−τ; α) with initial parameters α= ? , Δf=Δfq, and τ=0. Finally,
as time instance, ? as maximum frequency rise and dchirp,q=ln(7+4√{square root over (3)})/αq is reported as duration of a chirp for each q reported time window with parameter estimates αq, ? , τq. Here the formula for chirp duration corresponds to the half prominence of Ψ(ξ; αq, ? , τq).
as §1, §2
The method described in Eske et al. (2023) was employed for the detection of chirps. This method assumes that the frequency shape of chirps normalized by the peak frequency rise is described in time by function
where ξ is the time coordinate measured from the chirp's peak frequency and α is an unknown parameter identified by the chirp detection method (FIG. 2). This function closely matches the shape of type-2 chirps, and, though to a lesser extent, the shape of type-1 chirps. […]

The mark [3] stands for this setting: 0.02% MS-222, 5 min exposure (FIG. 30).

Where “and” joins values, the source holds several entries; their conditions need not be identical. Equal values may be shown once. A value given as a limit tells only on which side of the number the result lay.

As for `CCOC(=O)c1cccc(N)c1` [MS-222, 3-aminobenzoic acid ethyl ester methanesulfonate], in experiment [1] (setting [3]), the “Time from start of exposure until locomotor activity drops dramatically” value was no more than 2 min and the “Time to recovery of locomotor activity after return to home tank” value was no more than 2 min. Moreover, in experiment [1], the “Treatment time until anal fin undulation and opercular movement ceased, including transfer to and from the beaker” value is 9 to 15 min. Further, the “Time chirp rates remained elevated after anesthesia” value in experiment [2] (0.02% MS-222) was no more than 3 h. In experiment [2], the “Number of chirps during the 30 min immediately following anesthesia (mean)” value came out at 48 chirps, the “Number of chirps during the 30 min immediately following anesthesia (median)” value was determined as 30 chirps and the “Number of chirps during the 30 min immediately following anesthesia (range among fish)” value is recorded as 1-156 chirps.
Turning to `C=CCc1ccc(O)c(OC)c1` [eugenol], the “Fish in which anal fin continued undulating throughout the 5-min exposure” value in experiment [1] (30 μL/L eugenol) is 3 out of 8; in experiment [1] (45 μL/L eugenol), 1 out of 8. Besides, the “Time after which body movements ceased (mean)” value was 1.8 min in experiment [1] (30 μL/L eugenol, 8 fish) and 1.4 min in experiment [1] (45 μL/L eugenol, 8 fish). For the same compound, the “Time after which body movements ceased (range)” value is 1 to 3 min in experiment [1] (30 μL/L eugenol, 8 fish) and 1 to 2 min in experiment [1] (45 μL/L eugenol, 8 fish). Also, the “Time after which anal fin undulation stopped” value in experiment [1] (30 μL/L eugenol, the 5 fish in which it stopped) is 1 to 3 min. Besides, the “Time to anesthesia (total loss of equilibrium and cessation of any movement, including anal fin undulation)” value in experiment [1] (45 μL/L and 60 μl/L eugenol) was 1 to 4 min. For the same compound, the “Time after which anal fin ceased undulating” value in experiment [1] (45 μL/L eugenol, the 7 fish in which it ceased) lay within 1 to 3 min. Also, the “Time after which body movements ceased (each fish)” value in experiment [1] (60 μL/L eugenol, 8 fish) is listed as 1 min. In addition, the “Difference in increase in the number of chirps (30 min before vs 30 min after exposure): Median” value in experiment [2] (eugenol 30 μL/L vs. Control) is 97.5; in experiment [2] (eugenol 45 μL/L vs. Control) it was 137; in experiment [2] (eugenol 60 μL/L vs. Control), 160. In addition, the “Difference in increase in the number of chirps between pairs of eugenol concentrations: Median” value in experiment [2] (eugenol 45 μL/L vs. 30 μL/L) stood at 8; in experiment [2] (eugenol 60 μL/L vs. 30 μL/L) it was 60.5; in experiment [2] (eugenol 60 μL/L vs. 45 μL/L) it was 23.
Turning to `CCOC(N)=O` [urethane], the “Treatment time until anal fin undulation and opercular movement ceased, including transfer to and from the beaker” value in experiment [1] is 4 to 5 min. In experiment [2], the “Number of chirps during the 30 min immediately following anesthesia (mean)” value was 1852 chirps and 1500 chirps; the “Number of chirps during the 30 min immediately following anesthesia (median)” value was determined as 1541 chirps; the “Number of chirps during the 30 min immediately following anesthesia (range among fish)” value is recorded as 568-4434 chirps. Moreover, the “Time T to which type-2 chirping at higher rates persists after exposure” value in experiment [2] (2.5% urethane, single recording (FIG. 20)) is recorded as roughly 4600 s.

These data come from patent US20240207454A1, “NEURO-BEHAVIORAL ASSAY FOR PHYSIOLOGICAL EVALUATION OF WATER-SOLUBLE ANESTHETICS” (Northeastern University, priority 2022, published 2024).
